The values below are quoted from earlier work in US20170343557A1, “USE OF 5-METHOXYTRYPTOPHAN AS DIAGNOSTIC AGENT OF INFLAMMATORY DISEASES” (NATIONAL HEALTH RESEARCH INSTITUTES, priority 2014, published 2017).

The test system of data set [1] is cancer cell migration and invasion.
For data set [2], the system named is cancer metastasis in a xenograft model.
The subject of data set [3] is COX-2 expression in fibroblasts and cancer cells.

For the compound `COc1ccc2[nH]cc(C[C@H](N)C(=O)O)c2c1` [5-MTP, 5-methoxytryptophan], the “Cancer cell migration and invasion” value in data set [1] is on record as “reduces”. Besides, the Cancer metastasis entry in data set [2] is given as “reduces”. Moreover, the “Proinflammatory mediator-induced COX-2 expression” value in data set [3] is reported as “inhibits”.
